Like-named read-outs stand apart in the source and are kept apart here. Marks after values point to notes of the source that are not given here.

The test system of test [1] is kindled seizures (seizure score, after-discharge duration). Conditions: for Effect in rat kindling model: Figure 1.
In test [2] the test system is chemically-induced forelimb clonic seizures. Conditions: mouse, cited from earlier work.
For test [3], the system named is maximal electroshock seizure (hind-limb tonic extension). Conditions: mouse.
Test [4] has the same test system. The note with it: in vivo, cited from earlier work.
In a further test the target is rat Nav1.2 (Rattus norvegicus, UniProt P04775). As to the kind of experiment: Voltage-gated Na+ channel whole-cell patch-clamp in CHL1610 cells. It is filed as cell-based. In general terms: Patch clamp records ionic current or voltage across a cell membrane.
rat Nav1.2, sequence (P04775 whole entry): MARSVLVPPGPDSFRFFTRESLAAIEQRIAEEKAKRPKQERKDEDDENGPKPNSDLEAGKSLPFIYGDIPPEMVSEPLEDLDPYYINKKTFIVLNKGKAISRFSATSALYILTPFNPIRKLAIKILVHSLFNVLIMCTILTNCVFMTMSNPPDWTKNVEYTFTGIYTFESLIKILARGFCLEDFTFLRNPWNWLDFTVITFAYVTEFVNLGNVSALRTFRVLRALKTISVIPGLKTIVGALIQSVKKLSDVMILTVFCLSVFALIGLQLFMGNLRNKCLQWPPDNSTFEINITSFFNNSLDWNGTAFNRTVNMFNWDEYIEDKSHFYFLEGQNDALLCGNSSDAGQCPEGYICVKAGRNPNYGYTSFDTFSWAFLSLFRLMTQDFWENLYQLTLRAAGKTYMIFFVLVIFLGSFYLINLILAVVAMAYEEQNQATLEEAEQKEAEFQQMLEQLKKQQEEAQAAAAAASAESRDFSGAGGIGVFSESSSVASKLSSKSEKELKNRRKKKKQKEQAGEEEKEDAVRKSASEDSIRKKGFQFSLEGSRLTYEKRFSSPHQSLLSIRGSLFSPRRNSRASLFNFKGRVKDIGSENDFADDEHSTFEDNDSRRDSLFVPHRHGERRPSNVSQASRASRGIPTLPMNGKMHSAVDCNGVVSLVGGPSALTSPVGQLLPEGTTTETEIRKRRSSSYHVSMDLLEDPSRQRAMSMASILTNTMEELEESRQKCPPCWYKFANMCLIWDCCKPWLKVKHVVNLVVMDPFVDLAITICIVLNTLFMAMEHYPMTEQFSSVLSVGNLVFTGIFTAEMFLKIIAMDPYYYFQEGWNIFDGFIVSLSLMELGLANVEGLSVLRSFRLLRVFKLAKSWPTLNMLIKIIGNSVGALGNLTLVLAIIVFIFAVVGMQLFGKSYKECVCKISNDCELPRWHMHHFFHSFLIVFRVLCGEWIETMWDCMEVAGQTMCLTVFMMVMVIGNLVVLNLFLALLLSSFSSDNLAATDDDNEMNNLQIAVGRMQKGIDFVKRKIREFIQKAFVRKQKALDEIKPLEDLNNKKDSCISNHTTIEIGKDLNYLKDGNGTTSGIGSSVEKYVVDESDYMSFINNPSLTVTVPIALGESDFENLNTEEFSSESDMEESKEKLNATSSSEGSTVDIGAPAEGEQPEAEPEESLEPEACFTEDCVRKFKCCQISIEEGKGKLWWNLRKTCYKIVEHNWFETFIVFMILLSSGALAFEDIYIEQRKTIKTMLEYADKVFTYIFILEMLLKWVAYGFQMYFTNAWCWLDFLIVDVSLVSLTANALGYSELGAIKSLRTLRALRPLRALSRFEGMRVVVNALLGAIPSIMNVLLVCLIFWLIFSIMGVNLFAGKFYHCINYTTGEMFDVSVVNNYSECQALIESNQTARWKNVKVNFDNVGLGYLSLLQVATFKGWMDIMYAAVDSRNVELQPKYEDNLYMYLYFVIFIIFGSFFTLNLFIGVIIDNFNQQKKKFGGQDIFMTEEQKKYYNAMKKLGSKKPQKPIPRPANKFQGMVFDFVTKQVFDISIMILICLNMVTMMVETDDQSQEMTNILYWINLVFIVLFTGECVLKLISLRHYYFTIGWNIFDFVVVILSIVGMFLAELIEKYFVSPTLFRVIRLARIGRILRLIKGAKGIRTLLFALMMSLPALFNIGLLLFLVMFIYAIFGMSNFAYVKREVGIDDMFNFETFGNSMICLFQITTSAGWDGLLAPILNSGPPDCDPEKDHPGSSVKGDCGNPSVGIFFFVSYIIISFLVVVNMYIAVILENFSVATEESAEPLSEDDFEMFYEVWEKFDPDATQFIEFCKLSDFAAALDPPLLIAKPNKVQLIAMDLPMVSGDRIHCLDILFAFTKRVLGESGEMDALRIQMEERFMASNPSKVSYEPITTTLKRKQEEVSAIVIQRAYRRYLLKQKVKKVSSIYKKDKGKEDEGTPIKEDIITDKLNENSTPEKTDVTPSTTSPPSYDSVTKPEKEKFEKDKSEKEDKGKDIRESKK
The target in another test is rat KCNQ2 (Rattus norvegicus, UniProt O88943). The test is described as follows: KCNQ2 whole-cell patch-clamp, M-current protocol. It is filed as cell-based.
rat KCNQ2, sequence (O88943 whole entry): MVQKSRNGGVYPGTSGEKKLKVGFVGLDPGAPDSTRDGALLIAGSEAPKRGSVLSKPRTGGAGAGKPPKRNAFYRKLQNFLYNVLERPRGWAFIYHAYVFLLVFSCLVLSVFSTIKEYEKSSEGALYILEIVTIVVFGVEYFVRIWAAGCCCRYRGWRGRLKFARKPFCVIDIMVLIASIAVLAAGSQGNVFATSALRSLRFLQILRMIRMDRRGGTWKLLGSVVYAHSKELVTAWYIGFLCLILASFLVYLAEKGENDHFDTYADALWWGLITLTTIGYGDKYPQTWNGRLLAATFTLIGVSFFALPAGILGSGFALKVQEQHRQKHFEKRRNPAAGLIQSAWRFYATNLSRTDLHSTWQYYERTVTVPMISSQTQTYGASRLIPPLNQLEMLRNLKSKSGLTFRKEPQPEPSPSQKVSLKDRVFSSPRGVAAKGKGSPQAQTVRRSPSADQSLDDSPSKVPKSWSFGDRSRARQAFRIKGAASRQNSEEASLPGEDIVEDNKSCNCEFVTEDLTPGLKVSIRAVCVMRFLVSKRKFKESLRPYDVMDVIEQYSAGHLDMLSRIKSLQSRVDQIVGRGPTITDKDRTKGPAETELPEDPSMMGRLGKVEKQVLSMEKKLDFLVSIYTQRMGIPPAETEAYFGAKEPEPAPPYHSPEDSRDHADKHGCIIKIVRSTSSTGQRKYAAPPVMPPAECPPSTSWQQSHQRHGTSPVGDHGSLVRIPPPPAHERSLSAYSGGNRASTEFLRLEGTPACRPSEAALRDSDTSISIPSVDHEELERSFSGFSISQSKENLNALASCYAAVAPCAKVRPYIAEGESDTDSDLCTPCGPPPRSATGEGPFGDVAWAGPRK
For a further test, the target named is kappa-opioid receptor (Homo sapiens, UniProt P41145). As to the kind of experiment: Cerep receptor-binding panel: kappa opioid. The note with it: read-out: Inhibition, kappa-opioid receptor.
kappa-opioid receptor, sequence (P41145 whole entry): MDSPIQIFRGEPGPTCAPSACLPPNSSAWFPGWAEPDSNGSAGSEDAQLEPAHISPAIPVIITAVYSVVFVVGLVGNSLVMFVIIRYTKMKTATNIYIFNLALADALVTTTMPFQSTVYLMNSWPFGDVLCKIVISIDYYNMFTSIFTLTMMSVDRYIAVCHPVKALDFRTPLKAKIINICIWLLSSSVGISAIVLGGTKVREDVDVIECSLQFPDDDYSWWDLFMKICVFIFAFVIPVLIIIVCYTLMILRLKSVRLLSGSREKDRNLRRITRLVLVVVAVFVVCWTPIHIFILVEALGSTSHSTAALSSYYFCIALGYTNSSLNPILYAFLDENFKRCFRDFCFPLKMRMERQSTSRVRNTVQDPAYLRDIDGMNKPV
For a further test, the system named is sound-induced seizures. As to the kind of experiment: animal or person. Conditions: Mus musculus, ip, read-out: Audiogenic seizure ED50.
Test [5] has as its system maximal electroshock seizure (hind-limb tonic extension). The note with it: at 2 h (time of peak effect); cited from earlier work.
Test [6] deals with kindled seizures (seizure score, after-discharge duration). The note with it: cited from earlier work.

Regarding `CCCC(CCC)C(=O)O` [valproic acid], the “Effect in rat kindling model” value in test [1] (maximally effective dose) is on record as “significantly suppressed seizure activity”. For the same compound, the “Doses giving protection similar to 3 (range of neurotoxic effects)” value in [1] (rat kindling) is reported as more than 300 mg/kg. Moreover, in test [2], the “ED50 in chemically-induced seizures (comparators)” value is listed as more than 200 mg/kg.
As to `CN(C)S(=O)(=O)NCC1COc2ccccc2O1` (centres unmarked) [compound 7, N-((2,3-Dihydrobenzo[1,4]dioxin-2-yl)methyl)-N’,N’-dimethylsulfamide], the “MES, po, effect (animals responding / animals tested)” value in test [3] (300 mg/kg po, 0.5 h) is 4/5; in test [3] (300 mg/kg po, 2 h), 0/5.
Take `CCCCNS(N)(=O)=O` [BuNHSO2NH2]: in [4] (mouse), the “Activity in the MES test” value is “not active”.
A word on the inhibition: it is the drop in the measured response relative to a control, in per cent. With `NS(=O)(=O)NC[C@H]1COc2cc(Cl)ccc2O1` [compound 4, (2S)-(–)-N-((6-Chloro-2,3-dihydrobenzo[1,4]dioxin-2-yl)methyl)sulfamide], the “Nav1.2 inhibition at −107 mV” value on rat Nav1.2 (at −107 mV) is on record as “virtually no inhibition”. At rat KCNQ2 (300 μM, −50 mV, N = 5 cells), the “Increase in KCNQ2 current” value is reported as 2.4 fold and the “Increase in decay kinetics” value worked out at 2 fold. In addition, the “Increase in KCNQ2 current” value on rat KCNQ2 (750 μM) is 4 fold. Besides, the inhibition at 10 µM on kappa-opioid receptor is 45%. In addition, in [1] (rat, i.p., p = 0.07), the “Effect on after-discharge duration” value is recorded as “no statistically significant effect”.
As for `CC[C@@H](C(N)=O)N1CCCC1=O` [levetiracetam], in test [2], the “ED50 in chemically-induced seizures (comparators)” value was more than 540 mg/kg.
One may read the ED50 as the dose that gives a 50% effect, or the effect in half of the subjects. With `CC1(C)O[C@@H]2[C@@H](CO[C@@]3(COS(N)(=O)=O)OC(C)(C)O[C@@H]23)O1` [compound 1, topiramate], in [1] (maximally effective dose), the “Rats with complete protection” value is “one out of eight” and the “Effect in rat kindling model” value is on record as “not effective”. In test [4], the “Oral mouse MES ED50” value is recorded as 43.8 ^f mg/kg. Besides, the “MES, po, effect (animals responding / animals tested)” value in test [4] (mouse) is listed as 0.5, 2/5; 2, 4/5 ^l. In addition, the ED50 in the test with sound-induced seizures was determined as 4.2 mg/kg.
Take `CCC1(C)CC(=O)NC1=O` (centres unmarked) [ethosuximide]: in test [1] (maximally effective dose), the “Effect in rat kindling model” value is given as “not effective”.
In the case of `NS(=O)(=O)NCc1ccccc1` [PhCH2NHSO2NH2], the “Mouse MES effect (animals protected / tested)” value in test [4] (100 mg/kg) and in [4] (300 mg/kg) was 3/3 throughout.
With `COc1cccc2c1O[C@@H](CNS(N)(=O)=O)CO2` [10g], the “MES, po, effect (animals responding / animals tested)” value in test [3] (100 mg/kg po, 0.5 h) is listed as 0.5, 0/5; 2, 0/5 ^j; in test [3] (100 mg/kg po, 2 h), 0.5, 0/5; 2, 0/5 ^j.
With `NC(=O)N1c2ccccc2C=Cc2ccccc21` [carbamazepine], the “Effect in rat kindling model” value in test [1] (maximally effective dose) was “significantly suppressed seizure activity”. The “Doses giving protection similar to 4 (range of neurotoxic effects)” value in test [1] (rat kindling) is reported as more than 26 mg/kg.
As for `O=C1NC(=O)C(c2ccccc2)(c2ccccc2)N1` [phenytoin], the “Effect in rat kindling model” value in test [1] (maximally effective dose) is listed as “significantly suppressed seizure activity”.
For `NS(=O)(=O)NCc1csc2ccccc12` [compound 3, N-((benzo[b]thien-3-yl)methyl)sulfamide], the “Oral mouse MES ED50” value in [4] is 119 ^c mg/kg. The “MES, po, effect (animals responding / animals tested)” value in test [4] (mouse, 100 mg/kg) is given as 0.5, 1/5; 2, 3/5. In [5], the “Rat MES oral ED50” value was 34 mg/kg. In addition, in test [2] (ip, […]), the “ED50 vs s.c. Bic-induced forelimb clonic seizures” value was 156 mg/kg, the “ED50 vs s.c. PTZ-induced forelimb clonic seizures” value is on record as 161 mg/kg and the “ED50 vs s.c. Pic-induced forelimb clonic seizures” value is listed as 106 mg/kg. Further, the “Rats with complete absence of seizure activity” value in [6] (maximally effective dose, time of peak effect) is given as “six out of eight”. The “Reduction of after-discharge duration” value in test [6] (rat, i.p., p < 0.01) is listed as 64%. In addition, the “Rats with seizure score reduced from 5 to 0” value in test [6] (rat, i.p., p = 0.0001) is recorded as “six out of eight”. The “Time of peak activity” value in test [6] (rat, i.p., sustained at 1 h) was 15 min.
With `NS(=O)(=O)NC[C@H]1COc2c(Cl)cccc2O1` [10a], the “MES, po, effect (animals responding / animals tested)” value in test [3] (100 mg/kg po, 0.5 h) is recorded as 0/5; in test [3] (100 mg/kg po, 2 h), 1/5.
Regarding `NS(=O)(=O)NCC1Oc2ccc(Cl)cc2O1` (centres unmarked) [11b], the “MES, po, effect (animals responding / animals tested)” value in test [3] (100 mg/kg po, 0.5 h) was 0.5, 0/5; 2, 0/5; in test [3] (100 mg/kg po, 2 h) it was 0.5, 0/5; 2, 0/5.
With `NCC1(CC(=O)O)CCCCC1` [gabapentin], on rat Nav1.2 (up to 300 μM), the “Effect on Na+ channel activity” value is “no effect”.

These data come from article PMC4004761 (Journal of medicinal chemistry, 2013).
